Laboratory results published in patent US10231954B2, “Neurodegenerative therapies” (LYTIX BIOPHARMA AS, priority 2014, dated 2019).

Key:
JNK1 = JNK1 (Homo sapiens, UniProt P45983); assay: Kinase profiling JNK1; format: biochemical
Description: (§1) Any value less that 25 is considered to be highly significant inhibition.

SGK1 = target: T1, SGK1 (Homo sapiens, UniProt O00141); assay: Kinase profiling SGK1; format: biochemical
T1 sequence (O00141 1-431): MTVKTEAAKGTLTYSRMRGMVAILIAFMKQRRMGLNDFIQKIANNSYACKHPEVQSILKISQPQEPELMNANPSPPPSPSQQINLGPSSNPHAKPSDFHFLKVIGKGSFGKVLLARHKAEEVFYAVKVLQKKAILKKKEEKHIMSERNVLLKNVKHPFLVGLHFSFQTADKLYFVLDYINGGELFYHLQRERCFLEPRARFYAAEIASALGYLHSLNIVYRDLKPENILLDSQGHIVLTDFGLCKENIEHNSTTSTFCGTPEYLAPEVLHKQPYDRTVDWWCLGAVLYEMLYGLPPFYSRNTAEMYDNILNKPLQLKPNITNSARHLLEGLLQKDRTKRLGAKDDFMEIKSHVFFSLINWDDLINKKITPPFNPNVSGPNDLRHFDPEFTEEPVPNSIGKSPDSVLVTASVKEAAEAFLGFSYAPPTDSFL
Description: as §1

CAMK1 = CAMK1 (Homo sapiens, UniProt Q14012); assay: Kinase profiling CAMK1; format: biochemical
Chain of CAMK1 (Q14012 whole entry, species assumed): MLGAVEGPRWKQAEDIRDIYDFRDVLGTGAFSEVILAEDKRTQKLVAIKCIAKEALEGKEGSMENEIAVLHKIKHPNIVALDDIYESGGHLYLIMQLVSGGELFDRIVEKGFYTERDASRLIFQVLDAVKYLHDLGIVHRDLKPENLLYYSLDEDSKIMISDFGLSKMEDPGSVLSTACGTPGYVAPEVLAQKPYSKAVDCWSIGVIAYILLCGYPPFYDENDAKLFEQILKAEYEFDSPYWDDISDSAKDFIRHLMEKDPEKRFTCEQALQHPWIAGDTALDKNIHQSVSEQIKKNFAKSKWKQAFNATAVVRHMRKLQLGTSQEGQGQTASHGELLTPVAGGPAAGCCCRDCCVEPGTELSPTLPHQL
Description: as §1

LKB1 = target: T2, LKB1 (Homo sapiens, UniProt Q15831); assay: Kinase profiling LKB1; format: biochemical
T2 sequence (Q15831 1-433): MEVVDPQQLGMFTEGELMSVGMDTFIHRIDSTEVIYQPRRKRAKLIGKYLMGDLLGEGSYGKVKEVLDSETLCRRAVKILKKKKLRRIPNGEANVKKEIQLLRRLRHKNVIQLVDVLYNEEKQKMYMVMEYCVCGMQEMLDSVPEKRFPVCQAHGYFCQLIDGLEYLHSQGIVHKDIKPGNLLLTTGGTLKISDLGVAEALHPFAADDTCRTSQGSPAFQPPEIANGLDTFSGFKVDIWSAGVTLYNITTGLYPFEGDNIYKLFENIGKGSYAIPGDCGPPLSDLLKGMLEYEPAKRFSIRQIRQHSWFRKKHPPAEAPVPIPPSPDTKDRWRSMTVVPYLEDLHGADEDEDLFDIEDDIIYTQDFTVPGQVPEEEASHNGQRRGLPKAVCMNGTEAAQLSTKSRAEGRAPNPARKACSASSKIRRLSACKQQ
T2 sequence (Q7RTN6 1-431 partner): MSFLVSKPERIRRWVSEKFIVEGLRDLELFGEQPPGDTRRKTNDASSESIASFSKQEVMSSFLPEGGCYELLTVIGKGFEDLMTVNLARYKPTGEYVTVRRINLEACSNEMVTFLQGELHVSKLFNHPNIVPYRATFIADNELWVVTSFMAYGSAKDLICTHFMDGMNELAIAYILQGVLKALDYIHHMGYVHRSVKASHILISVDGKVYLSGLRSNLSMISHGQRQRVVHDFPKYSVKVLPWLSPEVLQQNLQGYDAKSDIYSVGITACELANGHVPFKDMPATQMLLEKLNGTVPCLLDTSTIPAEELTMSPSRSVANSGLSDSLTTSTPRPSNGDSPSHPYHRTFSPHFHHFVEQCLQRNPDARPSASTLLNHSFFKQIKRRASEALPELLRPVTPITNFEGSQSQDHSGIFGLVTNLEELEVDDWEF
T2 sequence (Q9Y376 1-341 partner): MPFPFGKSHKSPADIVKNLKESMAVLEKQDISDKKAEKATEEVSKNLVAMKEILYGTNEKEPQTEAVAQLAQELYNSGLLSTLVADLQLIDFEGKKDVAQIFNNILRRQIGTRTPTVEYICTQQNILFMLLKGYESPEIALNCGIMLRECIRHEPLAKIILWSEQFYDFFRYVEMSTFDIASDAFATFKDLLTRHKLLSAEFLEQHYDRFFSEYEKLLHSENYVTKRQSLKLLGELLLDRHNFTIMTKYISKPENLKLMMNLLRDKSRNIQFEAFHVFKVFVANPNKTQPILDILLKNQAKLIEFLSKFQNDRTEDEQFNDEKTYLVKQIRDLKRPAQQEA
Description: as §1

AMPK (hum) = assay: Kinase profiling AMPK (hum); format: biochemical, human
Description: as §1

CK2 = assay: Kinase profiling CK2; format: biochemical
Description: as §1

SRPK1 = SRPK1 (Homo sapiens, UniProt Q96SB4); assay: Kinase profiling SRPK1; format: biochemical
Chain of SRPK1 (Q96SB4 whole entry, species assumed): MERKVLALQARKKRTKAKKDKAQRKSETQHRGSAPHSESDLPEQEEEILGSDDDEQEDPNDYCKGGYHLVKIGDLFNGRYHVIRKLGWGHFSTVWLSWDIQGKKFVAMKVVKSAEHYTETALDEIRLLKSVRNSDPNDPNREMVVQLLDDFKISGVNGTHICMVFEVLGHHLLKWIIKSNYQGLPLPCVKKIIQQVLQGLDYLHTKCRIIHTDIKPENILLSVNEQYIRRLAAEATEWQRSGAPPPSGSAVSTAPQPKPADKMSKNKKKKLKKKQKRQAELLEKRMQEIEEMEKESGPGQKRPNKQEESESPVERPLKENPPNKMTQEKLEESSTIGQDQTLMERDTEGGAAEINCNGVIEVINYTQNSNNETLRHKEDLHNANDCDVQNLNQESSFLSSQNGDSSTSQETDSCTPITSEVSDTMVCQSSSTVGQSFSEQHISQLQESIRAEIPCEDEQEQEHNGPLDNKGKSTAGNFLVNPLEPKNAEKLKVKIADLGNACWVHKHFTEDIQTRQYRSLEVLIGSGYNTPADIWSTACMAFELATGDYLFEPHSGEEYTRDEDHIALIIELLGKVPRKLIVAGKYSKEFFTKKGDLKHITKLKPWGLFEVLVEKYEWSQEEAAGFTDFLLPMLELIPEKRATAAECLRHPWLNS
Description: as §1

MLK3 = MLK3 (Homo sapiens, UniProt Q16584); assay: Kinase profiling MLK3; format: biochemical
Chain of MLK3 (Q16584 whole entry, species assumed): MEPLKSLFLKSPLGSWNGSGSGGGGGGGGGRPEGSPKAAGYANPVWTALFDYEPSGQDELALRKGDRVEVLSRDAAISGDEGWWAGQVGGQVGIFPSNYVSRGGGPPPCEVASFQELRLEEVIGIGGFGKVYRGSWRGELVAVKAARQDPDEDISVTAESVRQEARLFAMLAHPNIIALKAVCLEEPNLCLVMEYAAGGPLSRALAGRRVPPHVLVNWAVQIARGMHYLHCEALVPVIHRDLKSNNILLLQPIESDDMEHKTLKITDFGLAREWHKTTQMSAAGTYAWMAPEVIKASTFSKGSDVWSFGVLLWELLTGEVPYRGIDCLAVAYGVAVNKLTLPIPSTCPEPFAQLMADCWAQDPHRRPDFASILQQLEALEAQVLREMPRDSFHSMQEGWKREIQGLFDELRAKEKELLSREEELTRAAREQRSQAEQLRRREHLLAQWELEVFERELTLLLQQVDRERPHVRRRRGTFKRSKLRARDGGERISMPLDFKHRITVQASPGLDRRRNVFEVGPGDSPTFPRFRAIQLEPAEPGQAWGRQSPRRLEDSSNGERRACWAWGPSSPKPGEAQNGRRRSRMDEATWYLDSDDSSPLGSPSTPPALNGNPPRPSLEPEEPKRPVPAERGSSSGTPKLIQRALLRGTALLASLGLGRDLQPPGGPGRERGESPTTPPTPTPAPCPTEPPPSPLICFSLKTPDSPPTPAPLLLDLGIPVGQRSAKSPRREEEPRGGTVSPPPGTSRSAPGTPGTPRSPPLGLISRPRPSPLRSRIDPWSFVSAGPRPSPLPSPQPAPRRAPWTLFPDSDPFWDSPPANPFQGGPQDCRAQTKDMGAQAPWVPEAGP
Description: as §1

IGF-1R = IGF-1R (Homo sapiens, UniProt P08069); assay: Kinase profiling IGF-1R; format: biochemical
Chain of IGF-1R (P08069 31-1367, species assumed): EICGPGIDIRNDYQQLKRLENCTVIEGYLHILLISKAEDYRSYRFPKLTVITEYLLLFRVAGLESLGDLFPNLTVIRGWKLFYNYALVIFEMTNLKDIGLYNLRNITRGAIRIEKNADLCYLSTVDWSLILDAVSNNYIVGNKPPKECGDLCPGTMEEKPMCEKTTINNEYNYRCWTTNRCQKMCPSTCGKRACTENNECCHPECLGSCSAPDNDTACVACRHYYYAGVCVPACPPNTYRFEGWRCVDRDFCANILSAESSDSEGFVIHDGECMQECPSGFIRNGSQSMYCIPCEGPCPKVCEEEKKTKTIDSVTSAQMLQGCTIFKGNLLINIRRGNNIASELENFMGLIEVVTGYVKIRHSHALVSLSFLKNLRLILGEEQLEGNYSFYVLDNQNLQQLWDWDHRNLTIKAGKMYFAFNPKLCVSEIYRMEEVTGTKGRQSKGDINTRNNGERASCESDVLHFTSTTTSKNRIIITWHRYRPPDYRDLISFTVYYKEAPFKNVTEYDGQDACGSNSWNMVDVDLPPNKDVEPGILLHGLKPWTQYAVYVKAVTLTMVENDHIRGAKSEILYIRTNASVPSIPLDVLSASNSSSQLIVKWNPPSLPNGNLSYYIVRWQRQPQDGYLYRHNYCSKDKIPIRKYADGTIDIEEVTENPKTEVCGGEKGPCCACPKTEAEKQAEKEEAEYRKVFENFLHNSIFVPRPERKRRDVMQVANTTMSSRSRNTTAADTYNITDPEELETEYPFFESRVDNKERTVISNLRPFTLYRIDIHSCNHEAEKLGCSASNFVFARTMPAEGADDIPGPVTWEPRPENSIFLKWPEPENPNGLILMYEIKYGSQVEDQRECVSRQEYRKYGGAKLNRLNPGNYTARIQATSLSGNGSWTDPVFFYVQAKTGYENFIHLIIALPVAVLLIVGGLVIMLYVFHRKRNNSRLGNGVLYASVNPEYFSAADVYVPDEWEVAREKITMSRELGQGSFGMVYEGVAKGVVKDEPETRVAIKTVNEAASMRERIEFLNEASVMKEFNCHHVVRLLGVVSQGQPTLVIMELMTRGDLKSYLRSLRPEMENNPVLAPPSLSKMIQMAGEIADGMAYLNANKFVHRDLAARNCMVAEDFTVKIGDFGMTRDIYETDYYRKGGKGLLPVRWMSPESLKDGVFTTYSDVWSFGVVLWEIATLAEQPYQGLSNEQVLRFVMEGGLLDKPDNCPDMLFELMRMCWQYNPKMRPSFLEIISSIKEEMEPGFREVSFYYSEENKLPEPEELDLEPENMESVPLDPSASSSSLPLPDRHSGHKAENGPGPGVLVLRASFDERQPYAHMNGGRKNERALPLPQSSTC
Description: as §1

[1] = 100 micromolar inhibitor concentration, 100 is no change
[2] = 100 micromolar inhibitor, 100 = no change

Chain of JNK1 (P45983 whole entry, species assumed): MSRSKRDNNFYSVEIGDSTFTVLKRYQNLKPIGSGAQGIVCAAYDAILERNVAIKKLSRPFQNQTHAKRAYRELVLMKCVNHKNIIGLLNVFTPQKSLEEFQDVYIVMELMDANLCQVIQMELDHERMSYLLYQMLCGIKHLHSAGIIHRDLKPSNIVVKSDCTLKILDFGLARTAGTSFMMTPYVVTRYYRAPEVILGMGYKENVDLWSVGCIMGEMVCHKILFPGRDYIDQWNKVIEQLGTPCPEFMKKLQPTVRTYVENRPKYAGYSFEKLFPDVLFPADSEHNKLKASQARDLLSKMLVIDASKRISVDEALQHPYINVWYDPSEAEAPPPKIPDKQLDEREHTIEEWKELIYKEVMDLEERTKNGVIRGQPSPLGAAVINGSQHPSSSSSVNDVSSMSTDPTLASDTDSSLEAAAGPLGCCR

Structure (SMILES)	residual kinase activity, JNK1 (JNK1; [1])	residual kinase activity, SGK1 (SGK1; [1])	residual kinase activity, CAMK1 (CAMK1; [1])	residual kinase activity, LKB1 (LKB1; [1])	residual kinase activity, AMPK (hum) (AMPK (hum); [1])	residual kinase activity, CK2 (CK2; [1])	residual kinase activity, SRPK1 (SRPK1; [1])	residual kinase activity, MLK3 (MLK3; [1])	residual kinase activity, IGF-1R (IGF-1R; [1])	other results
O=C(Nc1nc2ccc(F)cc2s1)c1ccccc1 [Compound 03-92]	94	93	97	100	76	90	19	49	88	–
CC(=O)Nc1nc2ccc(F)cc2s1 [Compound 03-94]	82	67	86	46	59	91	75	46	92	–
COc1ccc2sc(NC(=O)c3ccccc3)nc2c1 [Compound 03-95]	90	60	76	72	75	78	42	40	100	–
COc1ccc2nc(NC(=O)c3ccccc3)sc2c1 [Compound 03-98]	95	78	68	118	94	88	10	20	104	–
O=C(Nc1nc2ccc(C(F)(F)F)cc2s1)c1ccccc1 [Compound 03-99]	86	69	84	103	73	80	61	72	85	–
O=C(Nc1nc2cc(O)ccc2s1)c1ccccc1 [Compound 03-102]	83	86	72	33	49	75	10	15	52	–
COC(=O)c1cccc(C(=O)Nc2nc3ccc(C(F)(F)F)cc3s2)c1 [Compound 03-105, Methyl 3-((6-(trifluoromethyl)benzo[d]thiazol-2-yl)carbamoyl)benzoate]	–	–	–	–	71	89	–	–	–	remaining activity at 100 µM (JNK1; read-out: residual kinase activity, JNK1): 84%; remaining activity at 100 µM (SGK1; read-out: residual kinase activity, SGK1): 86%; remaining activity at 100 µM (CAMK1; read-out: residual kinase activity, CAMK1): 92%; remaining activity at 100 µM (LKB1; read-out: residual kinase activity, LKB1): 91%; remaining activity at 100 µM (SRPK1; read-out: residual kinase activity, SRPK1): 54%; remaining activity at 100 µM (MLK3; read-out: residual kinase activity, MLK3): 54%; remaining activity at 100 µM (IGF-1R; read-out: residual kinase activity, IGF-1R): 101%
N#Cc1ccc2nc(NC(=O)c3ccccc3)sc2c1 [Compound 03-106]	84	77	69	107	80	12	7	56	131	–
COC(=O)c1cccc(C(=O)Nc2nc3cc(OC)ccc3s2)c1 [Compound 03-108]	93	83	96	90	101	97	68	76	123	–
COC(=O)c1cccc(C(=O)Nc2nc3ccc(F)cc3s2)c1 [Compound 03-110]	98	87	99	92	69	86	55	68	96	–
COc1ccc2sc(NC(=O)c3cccc(C(N)=O)c3)nc2c1 [Compound 03-113]	86	88	102	95	96	46	82	73	104	–
COc1ccc2nc(C(=O)Nc3ccccc3)sc2c1 [Compound 13-03]	–	–	–	–	–	–	–	–	–	residual kinase activity, JNK1 (JNK1; [2]): 88; residual kinase activity, SGK1 (SGK1; [2]): 91; residual kinase activity, CAMK1 (CAMK1; [2]): 94; residual kinase activity, LKB1 (LKB1; [2]): 110; residual kinase activity, AMPK (hum) (AMPK (hum); [2]): 99; residual kinase activity, CK2 (CK2; [2]): 97; residual kinase activity, SRPK1 (SRPK1; [2]): 86; residual kinase activity, MLK3 (MLK3; [2]): 89; residual kinase activity, IGF-1R (IGF-1R; [2]): 104
